Measurements reported in US6605722B2, “Tyrosine derivatives with anti-leukotrienen activity” (Rotta Research Laboratorium S.p.A., priority 2000, dated 2003).
Counter-ions that a name gives are not always drawn.

Columns and labels:
[1] = biological target: T1, peptide-leukotriene receptor (Cavia porcellus, UniProt Q2NNR5); assay: Inhibition of the binding of [3H]-LTD4 to guinea-pig lung membranes; settings: for IC50: 0.3 nM [3H]-LTD4, guinea-pig lung membranes, 30 minutes at 25° C., read-out: IC50, concentration of antagonist displacing 50% of the [3H]-LTD4 ligand from the receptor; for affinity compared with the specific LTD4 agonist: guinea-pig lung membranes, nanomolar level
T1 construct: from tissue; host or cells: guinea-pig lung membranes
T1 sequence (Q2NNR5 1-340): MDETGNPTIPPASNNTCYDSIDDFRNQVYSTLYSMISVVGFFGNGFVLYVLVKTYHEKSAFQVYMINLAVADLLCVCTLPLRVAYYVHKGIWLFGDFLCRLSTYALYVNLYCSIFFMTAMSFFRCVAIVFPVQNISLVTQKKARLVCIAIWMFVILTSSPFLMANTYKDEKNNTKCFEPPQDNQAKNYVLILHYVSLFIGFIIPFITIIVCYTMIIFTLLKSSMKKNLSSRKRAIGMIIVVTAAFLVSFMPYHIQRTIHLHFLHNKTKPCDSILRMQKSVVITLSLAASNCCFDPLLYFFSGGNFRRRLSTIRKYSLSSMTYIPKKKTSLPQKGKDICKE
Method: The method described by Frey et al. [Eur. J. Pharmacol. 244 (1993): 239-250] was followed, with slight modifications.
The separation of the bound from the free was performed by rapid filtration on Whatman GF/B paper filters.

[2] = test system: contractions induced by LTD4 on isolated guinea-pig trachea; assay: Antagonism of contractions induced by LTD4 on isolated guinea-pig trachea in vitro (Schild analysis); settings: for pA2 calculated according to Schild: LTD4 contraction; for pA2 calculated according to Schild / ED50 of LTD4 (cumulative dose-response curve): isolated guinea-pig trachea
Method: J. Physiol. Pharmacol. 67 (1989): 17-28], with slight modifications. […] The results were expressed as the effect as a percentage of the maximum contraction induced by 300 μM acetylcholine.

[3] = Plasma levels in rats (oral bio-availability); format: in vivo; settings: 20 mg/kg
Method: In addition to the potency shown in vitro in the models given by way of example above, an advantageous and important characteristic of the compounds of the present invention is their optimal oral bio-availability. Thus, for example, Compound 1, administered to rats at a dose of 20 mg/kg, provided a maximum plasma concentration (CMAX) of about 20 mcg/ml 1 hour after administration.

[4] = test system: sensitized guinea-pigs (ovalbumin challenge); assay: Bronchoconstriction after aerosolized ovalbumin challenge in sensitized guinea-pigs; format: in vivo; settings: 0.3 mg/kg orally 30 minutes before aerosolized ovalbumin challenge
[5] = Acute toxicity (LD50) in mice; format: in vivo; settings: mouse, in vivo
Description: (§1) The compounds according to the invention also have a low toxicity profile.

mice = assay: Acute toxicity (LD50) in mice; format: in vivo; settings: oral route; effective dose 0.3 mg/kg
Description: as §1

[6] = antagonist concentration 100 nM

Row | Compound | IC50 [1] | melting point | further results
1 | O=C(NC(Cc1ccc(OCc2ccc3ccccc3n2)cc1)C(=O)O)c1cnc2ccccc2c1 (stereo not shown) [Compound 12] | 76 nM | 230 °C | –
2 | O=C(NC(Cc1ccc(OCc2ccc3ccccc3n2)cc1)C(=O)O)c1ccccc1 (stereo not shown) [Compound 2] | 190 nM | – | –
3 | O=C(NC(Cc1ccc(OCc2ccc3ccccc3n2)cc1)C(=O)O)c1ccc(Cl)cc1 (stereo not shown) [Compound 3] | 98.1 nM | 197 °C | –
4 | O=C(NC(Cc1ccc(OCc2ccc3ccccc3n2)cc1)C(=O)O)c1cccc2cccnc12 (stereo not shown) [Compound 14] | 64 nM | 141 °C (dec.) | –
5 | O=C(NC(Cc1ccc(OCc2ccc3ccccc3n2)cc1)C(=O)O)c1cccc(Cl)c1 (stereo not shown) [Compound 4] | 110 nM | 187 °C | –
6 | O=C(NC(Cc1ccc(OCc2ccc3ccccc3n2)cc1)C(=O)O)c1ccc(-c2ccccc2)cc1 (stereo not shown) (as salt: hydrochloride) [Compound 8] | – | 230 °C (dec.) | –
7 | COc1ccc(C(=O)NC(Cc2ccc(OCc3ccc4ccccc4n3)cc2)C(=O)O)cc1 (stereo not shown) [Compound 5] | 117 nM | 212 °C | –
8 | O=C(NC(Cc1ccc(OCc2ccc3ccccc3n2)cc1)C(=O)O)c1ccccc1 (stereo not shown) (as salt: hydrochloride) [Compound 2] | – | 140 °C | –
9 | O=C(NC(Cc1ccc(OCc2ccc3ccccc3n2)cc1)C(=O)O)c1ccc(C(F)(F)F)cc1 (stereo not shown) [Compound 6] | 42.7 nM | 211 °C | –
10 | O=C(NC(Cc1ccc(OCc2ccc3ccccc3n2)cc1)C(=O)O)c1ccc2ccccc2n1 (racemic) [Compound 1, O-(2-quinolinylmethyl)-N-quinaldoyl-D,L-tyrosine] | 20 nM | – | pA2 calculated according to Schild [2]: pA2 = 7.88; ED50 of LTD4 (cumulative dose-response curve) ([2]; antagonist concentration 10 nM): 4.53 nM; ED50 of LTD4 (cumulative dose-response curve) ([2]; antagonist concentration 30 nM): 15.31 nM; ED50 of LTD4 (cumulative dose-response curve) [2, 6]: 31.75 nM; time of maximum plasma concentration after administration [3]: 1 h; AUC ([3]; rat, plasma, oral): ~50000 ng·h/mL; concentration at 8 h ([3]; rat, plasma, oral, 8 h, read-out: plasma concentration 8 h after administration): > 2000 ng/mL; Cmax ([3]; rat, plasma, oral, read-out: maximum plasma concentration (CMAX)): ~20000 ng/mL
11 | O=C(NC(Cc1ccc(OCc2ccc3ccc(F)cc3n2)cc1)C(=O)O)c1ccc2ccccc2n1 (racemic) [Compound 17, O-(7-fluoro-2-quinolinylmethyl)-N-quinaldoyl-D,L-tyrosine] | 7.9 nM | – | pA2 calculated according to Schild [2]: pA2 = 8.53; ED50 of LTD4 (cumulative dose-response curve) ([2]; antagonist concentration 3 nM): 4.69 nM; ED50 of LTD4 (cumulative dose-response curve) ([2]; antagonist concentration 30 nM): 9.48 nM; ED50 of LTD4 (cumulative dose-response curve) ([2]; antagonist concentration 300 nM): 19.78 nM; affinity compared with the specific LTD4 agonist [1]: comparable; inhibition of the signs of bronchoconstriction (first appearance of abdominal contractions) [4]: completely inhibited; LD50 ([5]; iv): > 50 mg/kg; LD50 ([5]; po): > 300 mg/kg; acute toxic oral dose in mice relative to the pharmacologically effective dose (mice): more than 1000 times
12 | O=C(NC(Cc1ccc(OCc2ccc3ccccc3n2)cc1)C(=O)O)c1ccc(-c2ccccc2)cc1 (stereo not shown) [Compound 8] | 61.7 nM | – | –
13 | O=C(NC(Cc1ccc(OCc2ccc3ccccc3n2)cc1)C(=O)O)c1ccccn1 (stereo not shown) [Compound 10] | 32.3 nM | 171 °C | –
14 | O=C(NC(Cc1ccc(OCc2ccc3ccccc3n2)cc1)C(=O)O)c1ccccc1-c1ccccc1 (stereo not shown) [Compound 7] | 181 nM | 155 °C | –
15 | O=C(NC(Cc1ccc(OCc2ccc3ccccc3n2)cc1)C(=O)O)c1ccc2ccccc2c1 (stereo not shown) [Compound 11] | 39 nM | 196 °C | –
16 | O=C(NC(Cc1ccc(OCc2ccc3ccccc3n2)cc1)C(=O)O)c1ccc2ncccc2c1 (stereo not shown) [Compound 13] | 135 nM | 248 °C | –
17 | O=C(NC(Cc1ccc(OCc2ccc3ccc(Cl)cc3n2)cc1)C(=O)O)c1ccc(-c2ccccc2)cc1 (stereo not shown) [Compound 9] | 217 nM | 193 °C | –
18 | Cc1ccc2ccc(COc3ccc(CC(NC(=O)c4ccc5ccccc5n4)C(=O)O)cc3)nc2c1 (stereo not shown) [Compound 15] | 11.3 nM | 214 °C | –

Continued, in another order:

Row | IC50 [1] | melting point | Compound | further results
19 | 9.7 nM | 204 °C | O=C(NC(Cc1ccc(OCc2ccc3ccccc3n2)cc1)C(=O)O)c1cc2ccccc2cn1 (stereo not shown) [Compound 21] | –
20 | 34.8 nM | 198 °C | Cn1c(C(=O)NC(Cc2ccc(OCc3ccc4ccccc4n3)cc2)C(=O)O)cc2ccccc21 (stereo not shown) [Compound 25] | –
21 | 64.1 nM | 157 °C | O=C(NC(Cc1ccc(OCc2ccc3ccccc3n2)cc1)C(=O)O)c1nccc2ccccc12 (stereo not shown) [Compound 20] | –
22 | 90.3 nM | > 250 °C | O=C(NC(Cc1ccc(OCc2ccc3ccccc3n2)cc1)C(=O)O)c1ccc2nc[nH]c2c1 (stereo not shown) [Compound 29] | –
23 | > 300 nM | 232 °C | O=C(NC(Cc1ccc(OCc2ccc3ccccc3n2)cc1)C(=O)O)c1cnnc2ccccc12 (stereo not shown) [Compound 28] | –
24 | 103 nM | 223 °C | O=C(NC(Cc1ccc(OCc2ccc3ccccc3n2)cc1)C(=O)O)c1cc2ccccc2[nH]1 (stereo not shown) [Compound 23] | –
25 | 55.3 nM | 226 °C | O=C(NC(Cc1ccc(OCc2ccc3ccccc3n2)cc1)C(=O)O)c1c[nH]c2ccccc12 (stereo not shown) [Compound 24] | –
26 | 12.2 nM | – | O=C(N[C@H](Cc1ccc(OCc2ccc3ccc(F)cc3n2)cc1)C(=O)O)c1ccc2ccccc2n1 [Compound 19, O-(7-fluoro-2-quinolinylmethyl)-N-quinaldoyl-D-tyrosine] | –
27 | 200 nM | 224 °C | O=C(NC(Cc1ccc(OCc2ccc3ccccc3n2)cc1)C(=O)O)c1ccnc2ccccc12 (stereo not shown) [Compound 16] | –
28 | 5.3 nM | 227 °C | O=C(NC(Cc1ccc(OCc2ccc3ccc(F)cc3n2)cc1)C(=O)O)c1cc2ccccc2cn1 (stereo not shown) [Compound 22] | Kb ([2]; Cavia porcellus, equivalent to the calculated pA2): 1.73 nM; ED50 of LTD4 (cumulative dose-response curve) ([2]; antagonist concentration 10 nM): 8.03 nM; ED50 of LTD4 (cumulative dose-response curve) ([2]; antagonist concentration 30 nM): 13.71 nM; ED50 of LTD4 (cumulative dose-response curve) [2, 6]: 25.39 nM; affinity compared with the specific LTD4 agonist [1]: comparable
29 | 5.5 nM | – | O=C(N[C@@H](Cc1ccc(OCc2ccc3ccc(F)cc3n2)cc1)C(=O)O)c1ccc2ccccc2n1 [Compound 18, O-(7-fluoro-2-quinolinylmethyl)-N-quinaldoyl-L-tyrosine] | affinity compared with the specific LTD4 agonist [1]: comparable
30 | 24.1 nM | 170 °C | O=C(NC(Cc1ccc(OCc2ccc3ccccc3n2)cc1)C(=O)O)c1ccc(-c2ccccc2)cn1 (stereo not shown) [Compound 30] | –
31 | 50.8 nM | 180 °C | Cn1cc(C(=O)NC(Cc2ccc(OCc3ccc4ccccc4n3)cc2)C(=O)O)c2ccccc21 (stereo not shown) [Compound 26] | –
32 | 161 nM | > 240 °C | O=C(NC(Cc1ccc(OCc2ccc3ccccc3n2)cc1)C(=O)O)c1cnc2ccccc2n1 (stereo not shown) [Compound 27] | –
